Data on 18 molecules can be found in patent US11814367B2, “Inhibitors of glycogen synthase 1 (GYS1) and methods of use thereof” (Maze Therapeutics, Inc., priority 2021, dated 2023).

A value given as a limit tells only on which side of the number the result lay.

Assay [1] has as its target hGYS1 enzyme (recombinant hGYS1/GN1 protein) (Homo sapiens (Human), UniProt P13807). Briefly: GYS1 coupled enzyme assay (PK/LDH). The format is biochemical. The conditions noted are these: hGYS1/GN1 50 nM, UDP-Glucose 0.8 mM, G6P 1 mM; geometric mean of at least 2 runs.
Assay [2] has as its system hGYS1 enzyme / glycogen synthesis in HeLa cells. The experiment in a line: GYS1 cell based assay (glycogen synthesis, Glucose-glo). The conditions noted are these: Homo sapiens, HeLa, 24 h, 24 h incubation, 20 mM glucose, geometric mean of at least 2 runs. On the set-up: species or system human. The source says:
The GYS1 cell based assay is a bioluminescent assay that quantifies the glucose resulting from glycogen digestion; the quantified glucose is an indirect measure of GYS1 glycogen synthesis. Newly synthesized glycogen is digested using Glucoamylase; the resulting glucose is quantified by using the Glucose-glo assay kit from Promega. Glucose-glo works by coupling glucose oxidation and NADH production with a bioluminescent system that is activated with NADH. Glucose is oxidized by Glucose dehydrogenase and the reaction reduces NAD+ to NADH; NADH activates Reductase which reduces a pro-luciferin Reductase Substrate to luciferin. Luciferin is detected in a luciferase reaction using Ultra-Glo rLuciferase and ATP, and the luminesce produced is proportional to the glucose in the sample. The luminescence is measured as a single point read in a plate reader.
Compounds that inhibit the hGYS1 enzyme and, subsequently, the glycogen synthesis in cells, were tested using assay ready plates (white, clear bottom 384 well plates) in a final DMSO reaction volume of 1% DMSO. Compounds in the assay ready plates were mixed with media with no additives, except for 20 mM glucose prior to cell addition. HeLa cells were starved in media with no additives, except for 1× Glutamax for 24 h. Starved HeLa cells were plated, in a 1:1 ratio to the media in the assay ready plate and incubated for 24 h at 37° C. and 5% C02. Cells were washed in 1×PBS buffer and lysed in lysis buffer containing 50% 1×PBS and 25% 0.3 N HCl of the final volume in the well or reaction volume; cells were incubated with lysis buffer for 10 minutes and quenched with the remaining 25% of the reaction volume that consisted of 450 mM Tris pH 8.0. Lysates were mixed in a 1:1 ratio with Glucoamylase in 100 mM Sodium Acetate buffer, pH 5.3; the mixture was incubated for 1 h at 37° C. The digested lysate was mixed in a 1:1 ratio with Glucose-glo detection mixture as per vendor recommendations (Luciferase detection buffer, Reductase, Reductase substrate, Glucose dehydrogenase, and NAD) in read-out plates (solid white 384-well plates) and incubated for 1 h at RT. The plates were read using a plate reader with luminescence capabilities. Each compound concentration Relative Luminescence Unit (RLU) was averaged and normalized to the average RLU of the positive and negative controls to obtain a percentage inhibition. The normalized data vs. concentration was plotted; to determine the half-maximal concentration (IC50), the Levenberg-Marquardt algorithm was used to fit a Hill equation to the dose response data.
The results are shown in Table 3 below, which reports the IC50 of each compound. Unless otherwise specified, IC50 values are reported as the geometric mean of at least 2 assay runs on separate days. As shown in the table below, the compounds of the present invention are potent inhibitors of human GYS1. Unless otherwise specified, IC50 values are reported as the geometric mean of at least two assay runs on separate days. Each run represents the average of a technical replicate, where each compound was assayed twice in the same plate. A superscript “#” symbol in Table 3 indicates results from a single assay run.

hGYS1 enzyme (recombinant hGYS1/GN1 protein), sequence (P13807 whole entry): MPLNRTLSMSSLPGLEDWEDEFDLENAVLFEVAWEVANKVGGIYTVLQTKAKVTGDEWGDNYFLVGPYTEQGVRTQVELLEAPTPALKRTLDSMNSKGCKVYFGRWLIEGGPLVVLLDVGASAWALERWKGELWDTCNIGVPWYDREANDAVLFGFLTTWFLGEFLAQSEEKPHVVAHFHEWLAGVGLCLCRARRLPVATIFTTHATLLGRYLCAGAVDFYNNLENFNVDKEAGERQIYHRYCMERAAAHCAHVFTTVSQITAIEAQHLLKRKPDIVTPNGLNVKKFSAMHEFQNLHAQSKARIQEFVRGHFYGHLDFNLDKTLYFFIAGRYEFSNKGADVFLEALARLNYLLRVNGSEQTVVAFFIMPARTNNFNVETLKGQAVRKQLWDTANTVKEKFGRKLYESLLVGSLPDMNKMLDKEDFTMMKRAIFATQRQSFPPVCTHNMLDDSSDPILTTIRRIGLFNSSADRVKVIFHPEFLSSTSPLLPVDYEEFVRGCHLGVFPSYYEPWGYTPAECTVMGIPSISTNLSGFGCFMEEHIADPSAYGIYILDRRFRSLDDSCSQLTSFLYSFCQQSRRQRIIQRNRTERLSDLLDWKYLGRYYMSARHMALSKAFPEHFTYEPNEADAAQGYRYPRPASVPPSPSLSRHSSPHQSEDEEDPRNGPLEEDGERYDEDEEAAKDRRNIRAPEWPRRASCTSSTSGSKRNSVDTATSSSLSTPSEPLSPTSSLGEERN
hGYS1 enzyme (recombinant hGYS1/GN1 protein), sequence (P46976 whole entry partner): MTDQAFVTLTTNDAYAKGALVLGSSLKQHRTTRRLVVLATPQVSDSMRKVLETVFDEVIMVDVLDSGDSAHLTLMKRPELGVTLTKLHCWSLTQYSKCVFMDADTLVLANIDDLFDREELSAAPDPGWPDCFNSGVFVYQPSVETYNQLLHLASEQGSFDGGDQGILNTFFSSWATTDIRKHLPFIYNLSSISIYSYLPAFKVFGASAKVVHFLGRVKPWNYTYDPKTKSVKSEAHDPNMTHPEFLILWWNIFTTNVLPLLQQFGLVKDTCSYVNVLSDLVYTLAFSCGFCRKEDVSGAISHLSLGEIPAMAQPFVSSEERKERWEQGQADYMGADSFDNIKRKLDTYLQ

Turning to `CC(=O)N1C[C@H]2CC[C@H](C(=O)N3C[C@H](F)C[C@H]3C(=O)N[C@@H](c3ccccc3)c3ccc(C(C)C)cc3)[C@H]2C1` [Compound 177, (2S,4R)-1-[(3aS,4S,6aS)-2-acetyl-octahydrocyclopenta[c]pyrrole-4-carbonyl]-4-fluoro-N-[(S)-phenyl[4-(propan-2-yl)phenyl]methyl]pyrrolidine-2-carboxamide], the figures for the IC50 in assay [1] and in assay [2] were 0.349 µM and 2.09 µM, respectively.

For the molecule `CC(=O)N1C[C@@H]2C[C@@H]2[C@H]1C(=O)N[C@@H](c1ccccc1)c1ccc(C(C)C)cc1` [Compound 201, (1S,2S,5R)-3-acetyl-N-[(S)-phenyl[4-(propan-2-yl)phenyl]methyl]-3-azabicycl[3.1.0]hexane-2-carboxamide], the figures for the IC50 in assay [1] and in assay [2] were 0.461 µM and 3.7 µM, respectively.

Take `CC(C)c1ccc([C@@H](NC(=O)[C@@H]2C[C@@H](F)CN2C(=O)Cc2noc(=O)n2C)c2ccccc2)nc1` [Compound 267, (2S,4R)-4-fluoro-1-[2-(4-methyl-5-oxo-4,5-dihydro-1,2,4-oxadiazol-3-yl)acetyl]-N-[(S)-phenyl[5-(propan-2-yl)pyridin-2-yl]methyl]pyrrolidine-2-carboxamide]: the figures for the IC50 in assay [1] and in assay [2] were 0.464 µM and 4.3 µM, respectively.

For the molecule `CC(C)c1ccc([C@@H](NC(=O)[C@@H]2C[C@@H](F)CN2C(=O)Cn2cnnc2)c2ccccc2)nc1` [Compound 285, (2S,4R)-4-fluoro-N-[(S)-phenyl[5-(propan-2-yl)pyridin-2-yl]methyl]-1-[2-(4H-1,2,4-triazol-4-yl)acetyl]pyrrolidine-2-carboxamide], the results for the IC50 in assay [1] and in assay [2] were 0.149 µM and more than 18.6 µM, respectively.

As to `CC(C)c1ccc([C@@H](NC(=O)[C@@H]2C[C@@H](F)CN2C(=O)Cc2noc(=O)[nH]2)c2ccccc2)nc1` [Compound 286, (2S,4R)-4-fluoro-1-[2-(5-oxo-4,5-dihydro-1,2,4-oxadiazol-3-yl)acetyl]-N-[(S)-phenyl[5-(propan-2-yl)pyridin-2-yl]methyl]pyrrolidine-2-carboxamide], the figures for the IC50 in assay [1] and in assay [2] were 0.147 µM and more than 30 µM, respectively.

`O=C(N[C@@H](c1ccccc1)c1ccc(C2CC2)c(F)n1)[C@@H]1C[C@@H](F)CN1C(=O)Cc1cccn2c(=O)[nH]nc12` [Compound 297, (2S,4R)-N-[(S)-(5-cyclopropyl-6-fluoropyridin-2-yl)(phenyl)methyl]-4-fluoro-1-(2-{3-oxo-2H,3H-[1,2,4]triazolo[4,3-a]pyridin-8-yl}acetyl)pyrrolidine-2-carboxamide]: the IC50 turned out to be 0.015 µM in assay [1] and 0.7 µM in assay [2].

In the case of `CC(C)c1ccc([C@@H](NC(=O)[C@@H]2C[C@@H](F)CN2C(=O)Cc2nn(C)c(=O)[nH]2)c2ccccc2)nc1F` [Compound 397, (2S,4R)-4-fluoro-N-[(S)-[6-fluoro-5-(propan-2-yl)pyridin-2-yl](phenyl)methyl]-1-[2-(1-methyl-5-oxo-4,5-dihydro-1H-1,2,4-triazol-3-yl)acetyl] pyrrolidine-2-carboxamide], the IC50 is 0.009 µM in assay [1] and 0.4 µM in assay [2].

Regarding `O=C(N[C@@H](c1ccccc1)c1ccc(C2CC2)c(F)c1)[C@@H]1C[C@@H](F)CN1C(=O)CN1CCOCC1=O` [Compound 423, (2S,4R)-N-[(S)-(4-cyclopropyl-3-fluorophenyl)(phenyl)methyl]-4-fluoro-1-[2-(3-oxomorpholin-4-yl)acetyl]pyrrolidine-2-carboxamide], the IC50 in assay [1] is 0.35 µM; in assay [2], more than 9.26 µM.

`O=C(N[C@@H](c1ccccc1)c1ccc(C2CC2)c(F)c1)[C@@H]1C[C@@H](F)CN1C(=O)Cc1cc2ccccc2[nH]1` [Compound 460, (2S,4R)-N-[(S)-(4-cyclopropyl-3-fluorophenyl)(phenyl)methyl]-4-fluoro-1-[2-(1H-indol-2-yl)acetyl] pyrrolidine-2-carboxamide]: the IC50 is 0.187 µM in assay [1] and 2.42 µM in assay [2].

As for `CC(C)(C)OC(=O)n1c(CC(=O)N2C[C@H](F)C[C@H]2C(=O)N[C@@H](c2ccccc2)c2ccc(C3CC3)c(F)c2)cc2ccccc21` [Compound 461, tert-butyl 2-{2-[(2S,4R)-2-{[(S)-(4-cyclopropyl-3-fluorophenyl)(phenyl)methyl]carbamoyl}-4-fluoropyrrolidin-1-yl]-2-oxoethyl}-1H-indole-1-carboxylate], the IC50 in assay [1] is 0.026 µM; in assay [2] it was 0.57 µM.

For `CCn1cc(N(C)CC(=O)N2C[C@H](F)C[C@H]2C(=O)N[C@@H](c2ccccc2)c2ccc(C3CC3)c(F)c2)nn1` [Compound 473, (2S,4R)-N-[(S)-(4-cyclopropyl-3-fluorophenyl)(phenyl)methyl]-1-{2-[(1-ethyl-1H-1,2,3-triazol-4-yl)(methyl)amino]acetyl}-4-fluoropyrrolidine-2-carboxamide], the results for the IC50 in assay [1] and in assay [2] were 0.1 µM and 1.77 µM, respectively.

In the case of `O=C(N[C@@H](c1ccccc1)c1ccc(C2CC2)c(F)c1)[C@@H]1C[C@@H](F)CN1C(=O)CCc1n[nH]c(=O)[nH]1` [Compound 493, (2S,4R)-N-[(S)-(4-cyclopropyl-3-fluorophenyl)(phenyl)methyl]-4-fluoro-1-[3-(5-oxo-4,5-dihydro-1H-1,2,4-triazol-3-yl)propanoyl]pyrrolidine-2-carboxamide], the values for the IC50 in assay [1] and in assay [2] were 0.103 µM and 15.8 µM, respectively.

As to `Cn1c(CC(=O)N2C[C@H](F)C[C@H]2C(=O)N[C@@H](c2ccccc2)c2ccc(C3CC3)c(F)c2)noc1=O` [Compound 494, (2S,4R)-N-[(S)-(4-cyclopropyl-3-fluorophenyl)(phenyl)methyl]-4-fluoro-1-[2-(4-methyl-5-oxo-4,5-dihydro-1,2,4-oxadiazol-3-yl)acetyl]pyrrolidine-2-carboxamide], the IC50 in assay [1] is 0.661 µM; in assay [2], 12.4 µM.

On to `O=C(N[C@H](c1ccccc1)c1ccc(C2CC(F)(F)C2)c(F)n1)[C@@H]1C[C@@H](F)CN1C(=O)Cc1ccc[nH]c1=O` [Compound 521, (2S,4R)-N-[(R)-[5-(3,3-difluorocyclobutyl)-6-fluoropyridin-2-yl](phenyl)methyl]-4-fluoro-1-[2-(2-oxo-1,2-dihydropyridin-3-yl)acetyl]pyrrolidine-2-carboxamide], for which the figures for the IC50 in assay [1] and in assay [2] were 2.61 µM and more than 30 µM, respectively.

Take `CCn1cc(CC(=O)N2C[C@H](F)C[C@H]2C(=O)N[C@@H](c2ccccc2)c2ccc(C3CC(F)(F)C3)c(F)n2)cc(C)c1=O` [Compound 523, (2S,4R)-N-[(S)-[5-(3,3-difluorocyclobutyl)-6-fluoropyridin-2-yl](phenyl)methyl]-1-[2-(1-ethyl-5-methyl-6-oxo-1,6-dihydropyridin-3-yl)acetyl]-4-fluoropyrrolidine-2-carboxamide]: the IC50 in assay [1] is 0.005 µM; in assay [2], 0.08 µM.

For `CCOc1ncc(CC(=O)N2C[C@H](F)C[C@H]2C(=O)N[C@@H](c2ccccc2)c2ccc(C3CC(F)(F)C3)c(F)n2)cc1C` [Compound 524, (2S,4R)-N-[(S)-[5-(3,3-difluorocyclobutyl)-6-fluoropyridin-2-yl](phenyl)methyl]-1-[2-(6-ethoxy-5-methylpyridin-3-yl)acetyl]-4-fluoropyrrolidine-2-carboxamide], the IC50 in assay [1] came to 0.006 µM; in assay [2], 0.19 µM.

For the molecule `CCn1cc(C)cc(CC(=O)N2C[C@H](F)C[C@H]2C(=O)N[C@@H](c2ccccc2)c2ccc(C3CC(F)(F)C3)c(F)n2)c1=O` [Compound 525, (2S,4R)-N-[(S)-[5-(3,3-difluorocyclobutyl)-6-fluoropyridin-2-yl](phenyl)methyl]-1-[2-(1-ethyl-5-methyl-2-oxo-1,2-dihydropyrdin-3-yl)acetyl]-4-fluoropyrrolidine-2-carboxamide], the IC50 amounted to 0.004 µM in assay [1] and 0.05 µM in assay [2].

Turning to `CCn1cccc(CC(=O)N2C[C@H](F)C[C@H]2C(=O)N[C@@H](c2ccccc2)c2ccc(C3CC(F)(F)C3)c(F)n2)c1=O` [Compound 526, (2S,4R)-N-[(S)-[5-(3,3-difluorocyclobutyl)-6-fluoropyridin-2-yl](phenyl)methyl]-1-[2-(1-ethyl-2-oxo-1,2-dihydropyridin-3-yl)acetyl]-4-fluoropyrrolidine-2-carboxamide], the figures for the IC50 in assay [1] and in assay [2] were 0.011 µM and 0.13 µM, respectively.

In general, IC50 refers to the midpoint of a concentration-inhibition curve.
